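The compound was tested at five concentrations on cells cultured in 96-well plates, with a 48-hour exposure period. GI50: concentration for 50% inhibition of growth.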 Calls of active or inactive are those of the source. No stated cut-off is given here; in the data, active = GI50 up to about 1.1 µM and inactive = higher.
How the values were obtained:
Assay in all cases: NCI tumour cell line growth inhibition, 48 h
ACHN = tested on: ACHN
EKVX = tested on: EKVX
HCT-15 = tested on: HCT-15
HL-60 = tested on: HL-60
KM12 = tested on: KM12
NCI-H23 = tested on: NCI-H23
NCI-H460 = tested on: NCI-H460
NCI-H522 = tested on: NCI-H522
OVCAR-3 = tested on: OVCAR-3
SF-295 = tested on: SF-295
SF-539 = tested on: SF-539
SK-MEL-28 = tested on: SK-MEL-28
SNB-75 = tested on: SNB-75
U-251 = tested on: U-251
UACC-257 = tested on: UACC-257
A549 = tested on: A549
SK-MEL-5 = tested on: SK-MEL-5
SW-620 = tested on: SW-620

| SMILES | GI50 (ACHN) | GI50 (EKVX) | GI50 (HCT-15) | GI50 (HL-60) | GI50 (KM12) | GI50 (NCI-H23) | GI50 (NCI-H460) | GI50 (NCI-H522) | GI50 (OVCAR-3) | GI50 (SF-295) | GI50 (SF-539) | GI50 (SK-MEL-28) | GI50 (SNB-75) | GI50 (U-251) | GI50 (UACC-257) | GI50 (A549) | GI50 (SK-MEL-5) | GI50 (SW-620) |
| --- | --- | --- | --- | --- | --- | --- | --- | --- | --- | --- | --- | --- | --- | --- | --- | --- | --- | --- |
| COc1ccc(C2NC(c3ccc(OC)cc3)C(C)C(=O)C2C)cc1 (stereo not drawn) | > 100 µM (inactive) | 67 µM (inactive) | > 100 µM | > 100 µM (inactive) | > 100 µM (inactive) | > 100 µM (inactive) | > 100 µM (inactive) | > 100 µM (inactive) | > 100 µM (inactive) | > 100 µM (inactive) | > 100 µM (inactive) | > 100 µM (inactive) | 34 µM (inactive) | > 100 µM (inactive) | > 100 µM (inactive) | – | – | – |
| COc1ccc(NC(=O)CC/C(CC(=O)c2ccco2)=N/Nc2ccc([N+](=O)[O-])cc2[N+](=O)[O-])cc1 | > 100 µM (inactive) | > 100 µM (inactive) | > 100 µM | 30.1 µM (inactive) | > 100 µM (inactive) | 14.3 µM (inactive) | > 100 µM (inactive) | 55 µM (inactive) | 42.6 µM (inactive) | 62.1 µM (inactive) | > 100 µM (inactive) | > 100 µM (inactive) | > 100 µM (inactive) | > 100 µM (inactive) | 49.8 µM (inactive) | > 100 µM (inactive) | 48.4 µM (inactive) | 99.8 µM (inactive) |
| CCn1cc(/C=C/C(C)c2cn(CC)c(=O)[nH]c2=O)c(=O)[nH]c1=O (stereo not drawn) | > 100 µM (inactive) | > 100 µM (inactive) | > 100 µM | > 100 µM (inactive) | > 100 µM (inactive) | > 100 µM (inactive) | > 100 µM (inactive) | > 100 µM (inactive) | > 100 µM (inactive) | > 100 µM (inactive) | > 100 µM (inactive) | > 100 µM (inactive) | 84.7 µM (inactive) | > 100 µM (inactive) | > 100 µM (inactive) | > 100 µM (inactive) | > 100 µM (inactive) | > 100 µM (inactive) |
| CC1(C)CCC(Sc2ccccc2)O1 (stereo not drawn) | > 100 µM (inactive) | > 100 µM (inactive) | > 100 µM | > 100 µM (inactive) | > 100 µM (inactive) | > 100 µM (inactive) | > 100 µM (inactive) | – | > 100 µM (inactive) | > 100 µM (inactive) | > 100 µM (inactive) | > 100 µM (inactive) | 92 µM (inactive) | > 100 µM (inactive) | > 100 µM (inactive) | > 100 µM (inactive) | > 100 µM (inactive) | > 100 µM (inactive) |
| COCCCCCC(=O)CP(=O)(OC)OC | > 100 µM (inactive) | > 100 µM (inactive) | > 100 µM | 86.3 µM (inactive) | > 100 µM (inactive) | > 100 µM (inactive) | > 100 µM (inactive) | > 100 µM (inactive) | > 100 µM (inactive) | > 100 µM (inactive) | > 100 µM (inactive) | > 100 µM (inactive) | > 100 µM (inactive) | > 100 µM (inactive) | > 100 µM (inactive) | > 100 µM (inactive) | > 100 µM (inactive) | > 100 µM (inactive) |
| O=C(CCc1nnc2s/c(=C\c3ccccc3)c(=O)n12)Nc1cc(Cl)ccc1Cl | > 100 µM (inactive) | > 100 µM (inactive) | 34.2 µM | > 100 µM (inactive) | > 100 µM (inactive) | > 100 µM (inactive) | > 100 µM (inactive) | > 100 µM (inactive) | > 100 µM (inactive) | > 100 µM (inactive) | > 100 µM (inactive) | > 100 µM (inactive) | > 100 µM (inactive) | > 100 µM (inactive) | > 100 µM (inactive) | > 100 µM (inactive) | > 100 µM (inactive) | 4.15 µM (inactive) |
| O=C1OC(/C=C/c2ccccc2)C(=O)C1=O (stereo not drawn) | > 100 µM (inactive) | > 100 µM (inactive) | > 100 µM | > 100 µM (inactive) | > 100 µM (inactive) | > 100 µM (inactive) | > 100 µM (inactive) | > 100 µM (inactive) | – | > 100 µM (inactive) | > 100 µM (inactive) | > 100 µM (inactive) | > 100 µM (inactive) | > 100 µM (inactive) | > 100 µM (inactive) | > 100 µM (inactive) | – | > 100 µM (inactive) |
| CN(C)c1ccc(/C=c2\sc3nc4ccccc4n3c2=O)cc1 | > 100 µM (inactive) | > 100 µM (inactive) | > 100 µM | > 100 µM (inactive) | > 100 µM (inactive) | > 100 µM (inactive) | > 100 µM (inactive) | > 100 µM (inactive) | > 100 µM (inactive) | > 100 µM (inactive) | > 100 µM (inactive) | > 100 µM (inactive) | 32.8 µM (inactive) | > 100 µM (inactive) | > 100 µM (inactive) | > 100 µM (inactive) | > 100 µM (inactive) | > 100 µM (inactive) |
| C=CCN(N=O)C(=O)ON1C(=O)CCC1=O | > 100 µM (inactive) | > 100 µM (inactive) | > 100 µM | > 100 µM (inactive) | > 100 µM (inactive) | > 100 µM (inactive) | > 100 µM (inactive) | 64.7 µM (inactive) | > 100 µM (inactive) | > 100 µM (inactive) | > 100 µM (inactive) | > 100 µM (inactive) | 75.9 µM (inactive) | 17.7 µM (inactive) | > 100 µM (inactive) | > 100 µM (inactive) | – | > 100 µM (inactive) |
| CCC(C)c1cccc(C)c1NC(=O)C(=O)Cc1nc2ccccc2s1 (stereo not drawn) | > 100 µM (inactive) | > 100 µM (inactive) | > 100 µM | > 100 µM (inactive) | > 100 µM (inactive) | > 100 µM (inactive) | > 100 µM (inactive) | > 100 µM (inactive) | > 100 µM (inactive) | > 100 µM (inactive) | > 100 µM (inactive) | > 100 µM (inactive) | > 100 µM (inactive) | > 100 µM (inactive) | > 100 µM (inactive) | > 100 µM (inactive) | > 100 µM (inactive) | > 100 µM (inactive) |
| Cn1c(=O)c(C(c2ccc([N+](=O)[O-])cc2)c2c(O)c3ccccc3n(C)c2=O)cc2ccccc21 (stereo not drawn) | 57.8 µM (inactive) | 41.7 µM (inactive) | 45.8 µM | 36.1 µM (inactive) | 75.2 µM (inactive) | 32.6 µM (inactive) | > 100 µM (inactive) | 20 µM (inactive) | 55.3 µM (inactive) | 39.3 µM (inactive) | 43.6 µM (inactive) | 48.1 µM (inactive) | 23 µM (inactive) | 18.2 µM (inactive) | 20.5 µM (inactive) | 93.5 µM (inactive) | 51.3 µM (inactive) | > 100 µM (inactive) |
| CCCCC1(OC(=O)CCC(=O)O)CCC2(CCC(C)C(C/C=C(C)/C=C/C(O)C(C)/C=C/C(=O)O)O2)OC1CC/C(C)=C/C(=O)O (stereo not drawn) | 5.74 µM (inactive) | 5.2 µM (inactive) | 3.45 µM | 4.57 µM (inactive) | 3.1 µM (inactive) | 0.535 µM (active) | 6.18 µM (inactive) | 2.77 µM (inactive) | 2.64 µM (inactive) | 4.57 µM (inactive) | 1.77 µM (inactive) | 2.02 µM (inactive) | 2.31 µM (inactive) | 4.35 µM (inactive) | 1.55 µM (inactive) | 12.2 µM (inactive) | 1.61 µM (inactive) | 8.3 µM (inactive) |
| CC(C)=CCC/C(C)=C/CC/C(C)=C/CC/C=C(\C)CC/C=C(\C)CCC1SC1(C)C (stereo not drawn) | > 100 µM (inactive) | > 100 µM (inactive) | > 100 µM | > 100 µM (inactive) | > 100 µM (inactive) | > 100 µM (inactive) | > 100 µM (inactive) | > 100 µM (inactive) | – | > 100 µM (inactive) | > 100 µM (inactive) | > 100 µM (inactive) | > 100 µM (inactive) | > 100 µM (inactive) | > 100 µM (inactive) | > 100 µM (inactive) | > 100 µM (inactive) | 52.5 µM (inactive) |
| N#CC12CC3(CCC1CCC1(C2)OCCO1)OCCO3 (stereo not drawn) | > 100 µM (inactive) | > 100 µM (inactive) | > 100 µM | > 100 µM (inactive) | > 100 µM (inactive) | > 100 µM (inactive) | > 100 µM (inactive) | > 100 µM (inactive) | > 100 µM (inactive) | > 100 µM (inactive) | > 100 µM (inactive) | > 100 µM (inactive) | > 100 µM (inactive) | > 100 µM (inactive) | > 100 µM (inactive) | > 100 µM (inactive) | > 100 µM (inactive) | > 100 µM (inactive) |
| COC(=O)[C@@H]1C(=O)O[C@@H](c2ccc3c(c2)OCO3)[C@@H]1C(=O)OC.COC(=O)[C@H]1C(=O)O[C@@H](c2ccc3c(c2)OCO3)[C@@H]1C(=O)OC | > 100 µM (inactive) | > 100 µM (inactive) | > 100 µM | > 100 µM (inactive) | > 100 µM (inactive) | > 100 µM (inactive) | > 100 µM (inactive) | > 100 µM (inactive) | > 100 µM (inactive) | > 100 µM (inactive) | > 100 µM (inactive) | > 100 µM (inactive) | > 100 µM (inactive) | > 100 µM (inactive) | > 100 µM (inactive) | > 100 µM (inactive) | > 100 µM (inactive) | > 100 µM (inactive) |
| Nc1ccccc1N | > 100 µM (inactive) | – | > 100 µM | 25.6 µM (inactive) | > 100 µM (inactive) | > 100 µM (inactive) | > 100 µM (inactive) | 15.5 µM (inactive) | > 100 µM (inactive) | > 100 µM (inactive) | > 100 µM (inactive) | > 100 µM (inactive) | > 100 µM (inactive) | > 100 µM (inactive) | – | > 100 µM (inactive) | > 100 µM (inactive) | > 100 µM (inactive) |

— ChEMBL document CHEMBL1201862, “PubChem BioAssay data set” (2004)
